Data published in patent publication US9145392B2, “Imidazole amines as modulators of kinase activity” (Merck Patent GmbH, priority 2011, dated 2015).

What was measured:
[1] = biological target: P70S6K (T412E mutant) (Homo sapiens (Human), UniProt P23443, T412E); test: P70S6K enzyme assay; assay type: biochemical; conditions: read-out: IC50 p70S6K
Summary of the method: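 Read-out is the substrate/phosphopeptide ratio from mobility-shift electrophoresis on a LabChip 3000.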

[2] = biological target: His-AKT (Full Length) (Homo sapiens (Human), UniProt P31749); test: AKT enzyme assay; assay type: biochemical; conditions: read-out: IC50 AKT
Chain of His-AKT (Full Length) (P31749 whole entry): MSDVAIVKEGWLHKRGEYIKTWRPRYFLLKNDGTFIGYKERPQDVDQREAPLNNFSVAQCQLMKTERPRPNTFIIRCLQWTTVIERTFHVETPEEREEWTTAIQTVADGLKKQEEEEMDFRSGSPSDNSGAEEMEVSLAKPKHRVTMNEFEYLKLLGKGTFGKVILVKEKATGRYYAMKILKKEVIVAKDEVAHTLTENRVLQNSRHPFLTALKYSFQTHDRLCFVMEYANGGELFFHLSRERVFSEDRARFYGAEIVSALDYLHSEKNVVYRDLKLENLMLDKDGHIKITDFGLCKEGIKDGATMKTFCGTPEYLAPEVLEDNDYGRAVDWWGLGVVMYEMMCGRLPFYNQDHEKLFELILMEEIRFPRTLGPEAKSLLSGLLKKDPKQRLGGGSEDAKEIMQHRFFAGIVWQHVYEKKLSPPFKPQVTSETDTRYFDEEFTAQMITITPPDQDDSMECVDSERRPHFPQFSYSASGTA

Chain of P70S6K (T412E mutant) (P23443 whole entry T412E): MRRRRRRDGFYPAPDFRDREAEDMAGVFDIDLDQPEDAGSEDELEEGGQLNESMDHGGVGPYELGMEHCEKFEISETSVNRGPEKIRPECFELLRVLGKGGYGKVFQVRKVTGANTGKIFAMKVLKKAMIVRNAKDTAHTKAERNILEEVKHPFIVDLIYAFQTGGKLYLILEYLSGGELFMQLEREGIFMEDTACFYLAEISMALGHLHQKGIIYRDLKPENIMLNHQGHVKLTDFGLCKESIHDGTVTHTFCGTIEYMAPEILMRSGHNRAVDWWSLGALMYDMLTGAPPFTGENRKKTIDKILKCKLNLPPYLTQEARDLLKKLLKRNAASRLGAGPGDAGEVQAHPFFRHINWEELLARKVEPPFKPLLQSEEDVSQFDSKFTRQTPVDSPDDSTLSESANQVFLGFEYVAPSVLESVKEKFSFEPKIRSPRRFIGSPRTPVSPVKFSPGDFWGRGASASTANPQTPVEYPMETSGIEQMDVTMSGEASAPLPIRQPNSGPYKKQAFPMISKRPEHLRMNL

| IC50 [1] | IC50 [2] | Compound |
| --- | --- | --- |
| 21 nM | 49 nM | CCc1c(N)ncnc1N1CCC(c2nc(-c3ccc(F)c(C(N)=O)c3)cn2CCN2CCC2)CC1 [Compound 106, 5-(2-(1-(6-amino-5-ethylpyrimidin-4-yl)piperidin-4-yl)-1-(2-(azetidin-1-yl)ethyl)-1H-imidazol-4-yl)-2-fluorobenzamide] |
| 98 nM | 160 nM | CCc1c(N)ncnc1N1CCC(c2nc(-c3ccc(OC)c(C(N)=O)c3)cn2CCN2CCC2)CC1 [Compound 107, 5-(2-(1-(6-amino-5-ethylpyrimidin-4-yl)piperidin-4-yl)-1-(2-(azetidin-1-yl)ethyl)-1H-imidazol-4-yl)-2-methoxybenzamide] |
| 2.2 nM | 4.8 nM | CCc1c(N)ncnc1N1CCC(c2nc(-c3ccc(F)c(OC)c3)cn2CCN2CCC2)CC1 [Compound 108, 6-(4-(1-(2-(azetidin-1-yl)ethyl)-4-(4-fluoro-3-methoxyphenyl)-1H-imidazol-2-yl)piperidin-1-yl)-5-ethylpyrimidin-4-amine] |
| 0.9 nM | 1.6 nM | Nc1ncnc(N2CCC(c3nc(-c4ccc(F)c(C(F)(F)F)c4)cn3CCN3CCC3)CC2)c1-c1cnoc1 [Compound 109, 6-(4-(1-(2-(azetidin-1-yl)ethyl)-4-(4-fluoro-3-(trifluoromethyl)phenyl)-1H-imidazol-2-yl)piperidin-1-yl)-5-(isoxazol-4-yl)pyrimidin-4-amine] |
| 0.7 nM | 1.9 nM | Nc1ncnc(N2CCC(c3nc(-c4ccc(F)c(C(F)(F)F)c4)cn3CCN3CCC3)CC2)c1-c1cc[nH]c1 [Compound 110, 6-(4-(1-(2-(azetidin-1-yl)ethyl)-4-(4-fluoro-3-(trifluoromethyl)phenyl)-1H-imidazol-2-yl)piperidin-1-yl)-5-(1H-pyrrol-3-yl)pyrimidin-4-amine] |
| 8.7 nM | 106 nM | CCc1c(N)ncnc1N1CCC(c2nc(-c3ccnc(C)c3)cn2CCN2CCC2)CC1 [Compound 111, 6-(4-(1-(2-(azetidin-1-yl)ethyl)-4-(2-methylpyridin-4-yl)-1H-imidazol-2-yl)piperidin-1-yl)-5-ethylpyrimidin-4-amine] |
| 64.5 nM | 940 nM | CCc1c(N)ncnc1N1CCC(c2nc(-c3ccnc(OC)c3)cn2CCN2CCC2)CC1 [Compound 112, 6-(4-(1-(2-(azetidin-1-yl)ethyl)-4-(2-methoxypyridin-4-yl)-1H-imidazol-2-yl)piperidin-1-yl)-5-ethylpyrimidin-4-amine] |
| 84 nM | 465 nM | CCc1c(N)ncnc1N1CCC(c2nc(-c3cncc(C)c3)cn2CCN2CCC2)CC1 [Compound 113, 6-(4-(1-(2-(azetidin-1-yl)ethyl)-4-(5-methylpyridin-3-yl)-1H-imidazol-2-yl)piperidin-1-yl)-5-ethylpyrimidin-4-amine] |
| 3.6 nM | 6.6 nM | CC(C)c1c(N)ncnc1N1CCC(c2nc(-c3ccc(F)c(C(F)(F)F)c3)cn2CCN2CCC2)CC1 [Compound 114, 6-(4-(1-(2-(azetidin-1-yl)ethyl)-4-(4-fluoro-3-(trifluoromethyl)phenyl)-1H-imidazol-2-yl)piperidin-1-yl)-5-isopropylpyrimidin-4-amine] |
| 2.8 nM | 21 nM | COc1c(N)ncnc1N1CCC(c2nc(-c3ccnc(C(F)(F)F)c3)cn2CCN2CCC2)CC1 [Compound 115, 6-(4-(1-(2-(azetidin-1-yl)ethyl)-4-(2-(trifluoromethyl)pyridin-4-yl)-1H-imidazol-2-yl)piperidin-1-yl)-5-methoxypyrimidin-4-amine] |
| 2.4 nM | 8.2 nM | CCOc1c(N)ncnc1N1CCC(c2nc(-c3ccnc(C(F)(F)F)c3)cn2CCN2CCC2)CC1 [Compound 116, 6-(4-(1-(2-(azetidin-1-yl)ethyl)-4-(2-(trifluoromethyl)pyridin-4-yl)-1H-imidazol-2-yl)piperidin-1-yl)-5-ethoxypyrimidin-4-amine] |
| 4.9 nM | 9.1 nM | CC(C)Oc1c(N)ncnc1N1CCC(c2nc(-c3ccnc(C(F)(F)F)c3)cn2CCN2CCC2)CC1 [Compound 117, 6-(4-(1-(2-(azetidin-1-yl)ethyl)-4-(2-(trifluoromethyl)pyridin-4-yl)-1H-imidazol-2-yl)piperidin-1-yl)-5-isopropoxypyrimidin-4-amine] |
| 9.7 nM | 21 nM | Nc1ncnc(N2CCC(c3nc(-c4ccnc(C(F)(F)F)c4)cn3CCN3CCC3)CC2)c1OCC(F)(F)F [Compound 118, 6-(4-(1-(2-(azetidin-1-yl)ethyl)-4-(2-(trifluoromethyl)pyridin-4-yl)-1H-imidazol-2-yl)piperidin-1-yl)-5-(2,2,2-trifluoroethoxy)pyrimidin-4-amine] |
| 25 nM | 420 nM | CCc1c(N)ncnc1N1CCC(c2nc(-c3cccc(C(F)(F)F)n3)cn2CCN2CCC2)CC1 [Compound 119, 6-(4-(1-(2-(azetidin-1-yl)ethyl)-4-(6-(trifluoromethyl)pyridin-2-yl)-1H-imidazol-2-yl)piperidin-1-yl)-5-ethylpyrimidin-4-amine] |
| 1 nM | 2.4 nM | COc1cc(-c2cn(CCN3CCC3)c(C3CCN(c4ncnc(N)c4C#N)CC3)n2)ccc1F [Compound 120, 4-amino-6-(4-(1-(2-(azetidin-1-yl)ethyl)-4-(4-fluoro-3-methoxyphenyl)-1H-imidazol-2-yl)piperidin-1-yl)pyrimidine-5-carbonitrile] |
| 1 nM | 2.4 nM | COc1cc(-c2cn(CCN3CCC3)c(C3CCN(c4ncnc(N)c4C(N)=O)CC3)n2)ccc1F [Compound 121, 4-amino-6-(4-(1-(2-(azetidin-1-yl)ethyl)-4-(4-fluoro-3-methoxyphenyl)-1H-imidazol-2-yl)piperidin-1-yl)pyrimidine-5-carboxamide] |
| 0.7 nM | 2 nM | Cc1cc(-c2cn(CCN3CCC3)c(C3CCN(c4ncnc(N)c4C#N)CC3)n2)ccc1F [Compound 122, 4-amino-6-(4-(1-(2-(azetidin-1-yl)ethyl)-4-(4-fluoro-3-methylphenyl)-1H-imidazol-2-yl)piperidin-1-yl)pyrimidine-5-carbonitrile] |
| 2 nM | 14 nM | Cc1cc(-c2cn(CCN3CCC3)c(C3CCN(c4ncnc(N)c4C(N)=O)CC3)n2)ccc1F [Compound 124, 4-amino-6-(4-(1-(2-(azetidin-1-yl)ethyl)-4-(4-fluoro-3-methylphenyl)-1H-imidazol-2-yl)piperidin-1-yl)pyrimidine-5-carboxamide] |
| 1.5 nM | 9.7 nM | N#Cc1c(N)ncnc1N1CCC(c2nc(-c3ccnc(C(F)(F)F)c3)cn2CCN2CCC2)CC1 [Compound 125, 4-amino-6-(4-(1-(2-(azetidin-1-yl)ethyl)-4-(2-(trifluoromethyl)pyridin-4-yl)-1H-imidazol-2-yl)piperidin-1-yl)pyrimidine-5-carbonitrile] |
| 0.5 nM | 2.2 nM | Nc1ncnc(N2CCC(c3nc(-c4ccnc(C(F)(F)F)c4)cn3CCN3CCC3)CC2)c1Br [Compound 126, 6-(4-(1-(2-(azetidin-1-yl)ethyl)-4-(2-(trifluoromethyl)pyridin-4-yl)-1H-imidazol-2-yl)piperidin-1-yl)-5-bromopyrimidin-4-amine] |
| 1 nM | 2.8 nM | Nc1ncnc(N2CCC(c3nc(-c4ccnc(C(F)(F)F)c4)cn3CCNCCCCl)CC2)c1Br [Compound 127, 5-bromo-6-(4-(1-(2-((3-chloropropyl)amino)ethyl)-4-(2-(trifluoromethyl)pyridin-4-yl)-1H-imidazol-2-yl)piperidin-1-yl)pyrimidin-4-amine] |
| 11 nM | 250 nM | N#Cc1c(N)ncnc1N1CCC(c2nc(-c3ccoc3)cn2CCN2CCC2)CC1 [Compound 129, 4-amino-6-(4-(1-(2-(azetidin-1-yl)ethyl)-4-(furan-3-yl)-1H-imidazol-2-yl)piperidin-1-yl)pyrimidine-5-carbonitrile] |
| 2.6 nM | 91 nM | N#Cc1c(N)ncnc1N1CCC(c2nc(-c3ccsc3)cn2CCN2CCC2)CC1 [Compound 130, 4-amino-6-(4-(1-(2-(azetidin-1-yl)ethyl)-4-(thiophen-3-yl)-1H-imidazol-2-yl)piperidin-1-yl)pyrimidine-5-carbonitrile] |
| 5.7 nM | 165 nM | N#Cc1c(N)ncnc1N1CCC(c2nc(-c3ccccc3)cn2CCN2CCC2)CC1 [Compound 131, 4-amino-6-(4-(1-(2-(azetidin-1-yl)ethyl)-4-phenyl-1H-imidazol-2-yl)piperidin-1-yl)pyrimidine-5-carbonitrile] |
| 23 nM | 220 nM | N#Cc1c(N)ncnc1N1CCC(c2nc(-c3cnoc3)cn2CCN2CCC2)CC1 [Compound 132, 4-amino-6-(4-(1-(2-(azetidin-1-yl)ethyl)-4-(isoxazol-4-yl)-1H-imidazol-2-yl)piperidin-1-yl)pyrimidine-5-carbonitrile] |
| 46 nM | 3600 nM | NC(=O)c1c(N)ncnc1N1CCC(c2nc(-c3ccoc3)cn2CCN2CCC2)CC1 [Compound 133, 4-amino-6-(4-(1-(2-(azetidin-1-yl)ethyl)-4-(furan-3-yl)-1H-imidazol-2-yl)piperidin-1-yl)pyrimidine-5-carboxamide] |
| 6 nM | 1900 nM | NC(=O)c1c(N)ncnc1N1CCC(c2nc(-c3ccsc3)cn2CCN2CCC2)CC1 [Compound 134, 4-amino-6-(4-(1-(2-(azetidin-1-yl)ethyl)-4-(thiophen-3-yl)-1H-imidazol-2-yl)piperidin-1-yl)pyrimidine-5-carboxamide] |
| 860 nM | 760 nM | NC(=O)c1c(N)ncnc1N1CCC(c2nc(-c3cnoc3)cn2CCN2CCC2)CC1 [Compound 135, 4-amino-6-(4-(1-(2-(azetidin-1-yl)ethyl)-4-(isoxazol-4-yl)-1H-imidazol-2-yl)piperidin-1-yl)pyrimidine-5-carboxamide] |

| Compound | IC50 [1] | IC50 [2] |
| --- | --- | --- |
| NC(=O)c1c(N)ncnc1N1CCC(c2nc(-c3ccnc(C(F)(F)F)c3)cn2CCN2CCC2)CC1 [Compound 128] | 5.5 nM | 90 nM |
